Structures can show the parent of a compound that is named as a salt.
Test system: not given
Assay: not given
Details: not given

Compound	melting point
CN(C(=O)Cc1ccc(Cl)c(Cl)c1)[C@@H]1c2cc(N(CC(=O)O)CC(=O)O)ccc2CC[C@H]1N1CCCC1 (relative stereo) (as salt: HCl)	160 °C (dec.)
COC(=O)N1CCN(C(=O)Cc2ccccc2N)C(CN2CCCC2)C1 (racemic) (as salt: hydrochloride) [(R,S-9f), (R,S)-Methyl 4-[(2-aminophenyl)acetyl]-3-[(1-pyrrolidinyl)-methyl]-1-piperazine-carboxylate dihydrochloride]	195 °C (dec.)
COc1cc(CC(=O)N(C)[C@H](CN2CC[C@H](O)C2)c2ccccc2)c(S(=O)(=O)N2CCOCC2)cc1OC (as salt: HCl) [Example 141, 2-[2-N-(Morpholinesulfamoyl)-4,5-dimethoxyphenyl]-N-methyl-N-[(1S)-1-phenyl-2-[1-(3S)-(3-hydroxypyrrolidinyl)ethyl]]acetamide]	158 to 161 °C
CC(=O)N1CCN(C(=O)Cc2ccc(C(F)(F)F)cc2)C(CN2CCCC2)C1 (racemic) (as salt: hydrochloride) [(R,S-10b)]	110 °C
CN(C(=O)Cc1cc(Cl)c(Cl)cc1NC(=O)/C=C\C(=O)O)[C@H]1CCCC[C@@H]1N1CCCC1 (racemic)	246 to 248 °C (dec.)

Molecular target: cloned human kappa receptor (Homo sapiens, UniProt P41145)
Sequence (P41145 whole entry): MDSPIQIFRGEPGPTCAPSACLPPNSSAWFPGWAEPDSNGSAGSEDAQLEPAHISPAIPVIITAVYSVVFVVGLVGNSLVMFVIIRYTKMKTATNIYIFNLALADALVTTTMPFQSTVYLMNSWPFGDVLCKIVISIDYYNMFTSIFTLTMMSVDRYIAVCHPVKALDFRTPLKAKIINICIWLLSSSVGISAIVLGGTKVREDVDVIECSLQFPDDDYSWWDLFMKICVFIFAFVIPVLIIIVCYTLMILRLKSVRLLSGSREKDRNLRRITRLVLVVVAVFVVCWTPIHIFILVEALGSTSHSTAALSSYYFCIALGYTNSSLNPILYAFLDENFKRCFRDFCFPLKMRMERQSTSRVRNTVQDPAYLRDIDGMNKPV
Assay: biochemical
Format: binding
Parameters: (3H)-Diprenorphin, % / k [3H] Diprenorphin, %: dose or concentration left out as unconfirmed
Details: not given

Compound	[3H]-Diprenorphin, % @ 1 μM	(3H)-Diprenorphin, %
(±)-trans-3-N-Methyl-N-[2-(1-pyrrolidinyl)cyclohexyl]-(trans-3-furyl)acetamide hydrochloride [Example 4f]	0% @ 1 μM	–
CC(=O)N1CCN(C(=O)Cc2ccccn2)C(CN2CCCC2)C1.Cl (racemic) [Example 1gg, 4-Acetyl-1-[(2-pyridyl)acetyl]-2-(R,S)-[(1-pyrrolidinyl)methyl]piperazine hydrochloride]	–	27% @ 1 mM
CN(C(=O)Cc1ccc(C(F)(F)F)cc1NC(=O)/C=C\C(=O)O)C1CCCCC1N1CCCC1 (racemic) [Example 4b, (Z)-4-[2-((±)-trans-2-Amino-4-trifluoromethyl-N-methyl-N-[2-(1-pyrrolidinyl)-cyclohexyl]-phenylaetamido)]4-oxo-2-butenoic acid]	22% @ 1 μM	–
Cl.O=CN1CCN(C(=O)Cc2ccccn2)C(CN2CCCC2)C1 (racemic) [Example 1hh, 4-Formyl-1-[(2-pyridyl)acetyl]-2-(R,S)-[(1-pyrrolidinyl)methyl]piperazine hydrochloride]	–	0% @ 1 mM

Same assay, conditions: Ki (nM) [3H]-Diprenorphin κ

Compound	Ki
COc1cc(CC(=O)N(C)[C@H](CN2CC[C@H](O)C2)c2ccccc2)c(S(=O)(=O)N2CCCC2)cc1OC [Example 135, 2-[2-(N-Pyrrolidinesulfamoyl)-4,5-dimethoxyphenyl]-N-methyl-N-[(1S)-1-phenyl-2-[1-(3S)-(3-hydroxypyrrolidinyl)ethyl]]acetamide]	0.66 nM
COc1cccc(C(CN2CCCC2)N(C)C(=O)Cc2ccccc2NS(C)(=O)=O)c1 (racemic) [Example 3uu, (R,S)-1-[2-(Methanesulfonylamino)phenyl-N-methylacetamido]-1-(3-methoxyphenyl)-2-(1-pyrrolidino)-ethane, methanesulfonic acid salt]	17.5 nM
CN(C(=O)Cc1cc2c(cc1S(=O)(=O)N(C)Cc1ccccc1)OCO2)[C@H](CN1CCCC1)c1ccccc1 [Example 131, 2-[2-(N-Benzyl-N-methylsulfamoyl)-4,5-methylenedioxyphenyl]-N-methyl-N-[(1S)-1-phenyl-2-[(1-pyrrolidinyl)ethyl]]acetamide]	0.22 nM
CC(C)C(=O)Nc1cccc([C@@H](CN2CCCC2)N(C)C(=O)Cc2ccccc2NC(=O)C(C)C)c1 [Example 3qq, 2-(2-Iso-butyramidophenyl)-N-methyl-N-[(1S)-1-(3-isobutyramido-phenyl)-2-(1-pyrrolidinyl)ethyl]acetamide Methanesulfonic acid salt]	21 nM
COc1cc(CC(=O)N(C)[C@H](CN2CCCC2)c2ccccc2)c(S(=O)(=O)N2CCOCC2)cc1OC [Example 140, 2-[2-N-(Morpholinesulfamoyl)-4,5-dimethoxyphenyl]-N-methyl-N-[(1S)-1-phenyl-2-[1-(pyrrolidinyl)ethyl]]acetamide]	0.56 nM
CN(C(=O)Cc1ccccc1NS(C)(=O)=O)C(CN1CCCC1)c1cccc(O)c1 (racemic) [Example 3vv, (R,S)-1-[2-(Methanesulfonylamino)phenyl-N-methylacetamido]-1-(3-hydroxyphenyl)-2-(1-pyrrolidino)-ethane, methanesulfonic acid salt]	19.5 nM
CN(C(=O)Cc1ccccc1NS(C)(=O)=O)[C@H](CN1CCCC1)c1cccc(NS(C)(=O)=O)c1 [Example 3pp, 2-(2-Methanesulfonamidophenyl)-N-methyl-N-[(1S)-1-(3-methanesulfon-amidophenyl)-2-(1-pyrrolidinyl)ethyl]acetamide Hydrochloride]	4.6 nM
CCOC(=O)/C=C/C(=O)Nc1cc(Cl)c(Cl)cc1CC(=O)N(C)[C@H](CN1CCCC1)c1ccccc1 [Example 3y, (E) Ethyl 4-[2-(2-amino-4,5-dichlorophenyl)-N-methyl-N-[(1S)-1-phenyl)-2-[1-pyrrolidinyl]ethyl]acetamido]4-oxo-2-butenoate hydrochloride]	0.35 nM
COc1cc(CC(=O)N(C)[C@H](CN2CCCC2)c2ccccc2)c(S(=O)(=O)N(C)Cc2ccccc2)cc1OC [Example 148, 2-[2-(N-Benzyl-N-methylsulfamoyl)-4,5-dimethoxyphenyl]-N-methyl-N-[(1S)-1-phenyl-2-[(1-pyrrolidinyl)ethyl]]acetamide]	0.83 nM
COc1cc(CC(=O)N(C)[C@H](CN2CCCC2)c2ccccc2)c(S(=O)(=O)N(C)CC(=O)O)cc1OC [Example 142, N-Methyl-[[2-(N-sulfamoyl)-4,5-dimethoxyphenyl]-N-methyl-N-[(1S)-1-phenyl-2-[1-(pyrrolidinyl)ethyl]]acetamido]glycine]	13 nM
COc1cc(CC(=O)N(C)[C@H](CN2CC[C@H](O)C2)c2ccccc2)c(S(=O)(=O)N2CCN(C)CC2)cc1OC [Example 139]	4.2 nM
COc1cc(CC(=O)N(C)[C@H](CN2CCCC2)c2ccccc2)c(S(=O)(=O)N(C)Cc2ccccc2)cc1OC [Example 3xx, 2-(2-N-Benzyl-2-N-methylsulfamoyl-3,4-dimethoxyphenyl)-N-methyl-N-[(1S)-1-phenyl-2-(1-pyrrolidinyl)ethyl]acetamide hydrochloride]	0.83 nM

Same assay, conditions: Ki, nM 3H-Diprenorphin

Compound	Ki
COC(=O)N1CCN(C(=O)Cc2ccc(C(F)(F)F)cc2N(S(C)(=O)=O)S(C)(=O)=O)C(CN2CCCC2)C1 (racemic) [Example 1b, Methyl-4-[(2-[N,N-bis-methylsulfonamido]-4-trifluoromethyphenyl)acetyl]-3-(R,S)-[(1-pyrrolidinyl)-methyl]-1-piperazinecarboxylate dihydrochloride]	7 nM
CNS(=O)(=O)c1ccc(CC(=O)N2CCN(C(=O)OC)CC2CN2CCCC2)cc1 (racemic) [Example 1f, Methyl-4-[-4-[N-methylamino)sulfamyl]phenyl)acetyl]-3-(R,S)-[(1-pyrrolidinyl)methyl]-1-piperazinecarboxylate hydrochloride]	53.5 nM
CS(=O)(=O)N1CCN(C(=O)Cc2ccc(C(F)(F)F)cc2)C(CN2CC[C@H](OC(=O)Cc3ccc(C(F)(F)F)cc3)C2)C1 (stereo partly drawn) [Example 1mm, 4-Methylsulphonyl-1-[(4-α,α,α-triflouromethylphenyl)acetyl]-2-(R,S)-[3-(S)-(4′-α,α,α-triflouromethylphenyl acetate)-1-(pyrrolidinyl)methyl]piperazine hydrochloride]	287 nM
COC(=O)N1CCN(C(=O)Cc2ccc(C(F)(F)F)cc2N)C(CN2CCC[C@H]2CO)C1 (mixture of isomers) [Example 1p, Methyl-4-[(2-amino-4-α,α,α-trifluoromethylphenyl)acetyl]-3-(R,S)-[(2-(S)-pyrrolidinemethanol)methyl]-1-piperazinecarboxylate hydrochloride]	11 nM
COC(=O)N1CCN(C(=O)Cc2ccc(C(F)(F)F)cc2)C(CN2CC[C@H](OC(=O)Cc3ccc(C(F)(F)F)cc3)C2)C1 (mixture of isomers) [Example 1j, Methyl-4-[(4-a,a,a-trifluoromethylphenyl)acetyl]-3-(R,S)-[3-(S)-(4′-α,α,α-trifluoro methylphenylacetate)-1-(pyrrolidinyl)methyl]-1-piperazinecarboxylate hydrochloride]	13 nM

Same assay, conditions: Table IA; read-out: Ki(nM) (3H)-Diprenorphin

Compound	Ki
CC(=O)N1CCN(C(=O)Cc2ccc(S(C)(=O)=O)cc2)C(CN2CC[C@H](OC(=O)Cc3ccc(S(C)(=O)=O)cc3)C2)C1 (mixture of isomers) [Example 1u, 4-Acetyl-1-[(4-methylsulfonyl]phenyl)acetyl]-2-(R,S)-[3-(S)-(4′-methylsulfonylphenyl acetate)-1-(Pyrrolidinyl)methyl]piperazine hydrochloride]	1780 nM

Same assay, conditions: Table IIIA; read-out: Ki (nM) [3H]-Diprenorphin κ

Compound	Ki
CN(C(=O)Cc1ccc(C(F)(F)F)cc1NCC(=O)O)[C@H](CN1CCCC1)c1ccccc1 [Example 3b, N-[(4-Trifluoromethylphenyl)-N-methyl-N-{[1S]-1-phenyl-2-[1-pyrrolidinyl)]ethyl}acetamido]glycine hydrochloride]	464 nM

Same assay, conditions: read-out: Ki (nM) [3H]-Diprenorphin κ

Compound	Ki
CN(C(=O)Cc1ccccc1NC(=O)/C=C\C(=O)O)[C@H](CN1CCCC1)c1ccccc1 [Example 3aa, (Z)-4-[2-(2-Aminophenyl)-N-methyl-N-[(1S)-1-phenyl)-2-(1-pyrrolidinyl]-ethyl]acetamido]4-oxo-2-butenoic acid hemimaleate]	5280 nM

Same assay, conditions: read-out: Ki(nM) [3H]-Diprenorphin κ

Compound	Ki
COc1cc(CC(=O)N(C)[C@H](CN2CC[C@H](O)C2)c2ccccc2)c(S(=O)(=O)N(C)C)cc1OC [Example 137, 2-[2-(N-Dimethylsulfamoyl)-4,5-dimethoxyphenyl]-N-methyl-N-[(1S)-1-phenyl-2-[1-(3S)-(3-hydroxypyrrolidinyl)ethyl]]acetamide]	0.83 nM
COc1cc(CC(=O)N(C)[C@H](CN2CCCC2)c2ccccc2)c(S(=O)(=O)NC(C)(C)C)c(OC)c1OC [Example 144, 2-[2-(N-t-Butylsulfamoyl)-3,4,5-trimethoxyphenyl]-N-methyl-N-[(1S)-1-phenyl-2-[(1-pyrrolidinyl)ethyl]]acetamide]	0.17 nM
